The values below come from US20180344702A1, “METHODS FOR TREATING PATIENTS WITH HEMATOLOGIC MALIGNANCIES” (Aptose Biosciences, Inc., priority 2017, published 2018).

Structures are written as SMILES.

The target of one assay is ITK (Homo sapiens, UniProt Q08881). The assay can be described thus: Key off-targets (Table 8). Type of assay: biochemical.
The test system of assay [1] is human cells (e.g., FLTs-ITD-mutated leukemia cells MV4-11). The assay can be described thus: Mouse xenograft model, tumor volume. The class given is in vivo, mice. To be noted: several doses over a 22-day period, vs control or Ibrutinib. As to the method: Animal Study: Balb/c mice were injected (SQ) with human cells (e.g., FLTs-ITD-mutated leukemia cells MV4-11), and treated orally (q.d.) with the indicated doses of Compound 7 for 14 days. The effect (e.g., anti-leukemia) was assessed by measuring tumor burden. Oral toxicity was evaluated, for example, by measuring body weight. Compound 7 concentrations in plasma were measured at the indicated time points after dosing at the first day.

Assay [2] concerns Mino, RAMOS, GRANTA-519 and SU-DHL-6 cells. The assay can be described thus: Cell cycle progression in B-cell malignant cell lines (EdU/PI, FACS). Type of assay: cell-based. The conditions noted are these: FIGS. 27, 28. On the procedure:
The data presented in FIGS. 27A-27D and FIGS. 28A-28D were generated using well-known protocols for measuring cell cycle progression (e.g., EdU and/or PI staining followed by FACS analysis using the BD Accuri C6 flow), and is readily apparent to a skilled artisan.
Cell-cycle analysis: Cells were treated with vehicle, DMSO or Compound 7 and were stained with PI and EdU, and then analyzed by flow cytometry to determine the phases of cell cycle.

The subject of a further assay is Ba/F3-ITD (FLT3-ITD). In words: Antiproliferative activity (Table 6). Type of assay: cell-based, Murin. The conditions noted are these: 72 h.
Assay [3] concerns MV4-11 (FLT3-ITD, t(4:11)). The assay can be described thus: Antiproliferative activity (Table 6). Type of assay: cell-based. The conditions noted are these: Homo sapiens, MV4-11, 72 h.
The next assay concerns Ba/F3-D835Y (FLT3-D835Y). The assay can be described thus: Antiproliferative activity (Table 6). The class given is cell-based, Murin. To be noted: 72 h.
Assay [4] relates to Ba/F3 cells transfected with FLT3 ITD-F691L. The assay can be described thus: Cytotoxicity in isogenic transfected Ba/F3 cells (Table 4). Type of assay: cell-based, Murin. To be noted: Mus musculus, BaF3, read-out: IC50 in Transfected Ba/F3 cells, FLT3 ITD-F691L.
In another assay the target is BTK C481S (Homo sapiens, UniProt Q06187, C481S). The assay can be described thus: Inhibition of BTK, kinase IC50. The class given is biochemical. Set-up: RBC (only as the name of the general kinase protocol). As to the method:
RBC HotSpot Kinase Assay Protocol:
Reagents used: Base Reaction buffer; 20 mM Hepes (pH 7.5), 10 mM MgCl2, 1 mM EGTA, 0.02% Brij35, 0.02 mg/ml BSA, 0.1 mM Na3VO4, 2 mM DTT, 1% DMSO. Required cofactors are added individually to each kinase reaction.
Compound 7 was dissolved in 100% DMSO to a specified concentration. The serial dilution was conducted by epMotion 5070 in DMSO. The substrate was freshly prepared in Reaction Buffer and any required cofactors to the substrate solution were added. The kinase was added to the solution and gently mixed. Compound 7 was added in 100% DMSO into the kinase reaction mixture by Acoustic technology (Echo550; nanoliter range), and incubated for 20 min at room temperature. ^33P-ATP (Specific activity 10 μCi/μl) was added into the reaction mixture to initiate the reaction, which was incubated for 2 hours, whereupon kinase activity was detected by the filter-binding method.

Assay [5] concerns BTK pathway in EOL-1 cells. In words: Western blot analysis in EOL-1 cells. The class given is cell-based. The conditions noted are these: 0.5, 5.0, and 50 nM, FIG. 3. On the procedure:
Immunoblot assays: Cells were treated with Compound 7 at various concentrations and collected for cell lysates. The total and phosphorylated levels of the indicated proteins were determined by Western Blot.
In general terms: In western blotting, separated proteins are transferred to a membrane and probed.

For assay [6], the system named is EOL-1. The assay can be described thus: Cytotoxicity in high serum conditions (MTS). The class given is cell-based. The conditions noted are these: EOL-1, 72 hours, 10% vs 30%, 50%, 80% FBS. On the procedure:
Compound 7 was tested in a dose-dependent manner at different serum concentrations. […] In this experiment, MV4-11 (n=6) and EOL-1(n=3˜6) cells were treated with or without Compound 7 for 72 hours in medium containing normal (10%) or high serum (30%, 50%, 80%) FBS with an MTS assay serving as an end point.

In assay [7] the test system is various heme cell lines (MV4-11, NOMO-1, and KG-1 cells). In words: Polyploidy, EdU and PI staining with FACS. Type of assay: cell-based. The conditions noted are these: 24 hours, increasing concentrations. As to the method:
MV4-11, NOMO-1, and KG-1 cells were treated at increasing concentrations of Compound 7 for 24 hours, and the increase in DNA content or polploidy phenotype was assessed using EdU and PI staining followed by FACS analysis using the BD Accuri C6 flow.

For a further assay, the system named is Ba/F3-D835G (FLT3-D835G). The assay can be described thus: Antiproliferative activity (Table 6). The conditions noted are these: 72 h. The class given is cell-based, Murin.
For assay [8], the system named is BCR signaling in Ramos cells. In words: BCR signaling in IgM-stimulated Ramos cells. The conditions noted are these: 1 or 6 hours, then 12 μg/mL IgM for 3 min. Type of assay: cell-based. On the procedure: In this experiment, Ramos cells were treated with or without Compound 7 or Ibrutinin at the indicated concentration for 1 (6 replicates) or 6 (3 replicates) hours, then stimulated with 12 μg/mL IgM for 3 min.

The subject of a further assay is Ba/F3-FLT3 (FLT3-WT). In words: Antiproliferative activity (Table 6). The conditions noted are these: 72 h. The class given is cell-based, Murin.
The next assay deals with KG-1. The assay can be described thus: Cytotoxicity, MTS cell viability. The class given is cell-based. To be noted: Homo sapiens, AML, 72 hour MTS. On the procedure:
(§1) Cytotoxicity procedure: Cells were seeded in 96-well plate and treated with vehicle DMSO or Compound 7 at a specified concentration and incubated for 72 hours.

The subject of a further assay is MV4-11. The assay can be described thus: Cytotoxicity, MTS cell viability. The class given is cell-based. To be noted: Homo sapiens, AML, 72 hour MTS. On the procedure: as §1
The subject of another assay is MUTZ-8. In words: Cytotoxicity, MTS cell viability. The class given is cell-based. The conditions noted are these: AML, 72 hour MTS. As to the method: as §1
The subject of assay [9] is EOL-1. The assay can be described thus: Cytotoxicity, MTS cell viability. The class given is cell-based. The conditions noted are these: Homo sapiens, EOL1, AML, 72 hour MTS. On the procedure: as §1
In another assay the test system is Molm-13. In words: Cytotoxicity, MTS cell viability. Type of assay: cell-based. The conditions noted are these: Homo sapiens, AML, 72 hour MTS. On the procedure: as §1
The next assay deals with NOM0-1. In words: Cytotoxicity, MTS cell viability. The class given is cell-based. The conditions noted are these: AML, 72 hour MTS. As to the method: as §1
A further assay relates to THP-1. The assay can be described thus: Cytotoxicity, MTS cell viability. The class given is cell-based. To be noted: Homo sapiens, AML, 72 hour MTS. As to the method:
as §1

The test system of a further assay is HL60. In words: Cytotoxicity, MTS cell viability. The class given is cell-based. The conditions noted are these: Homo sapiens, HL-60, AML, 72 hour MTS. As to the method: as §1
The next assay concerns HEL92.1.7. In words: Cytotoxicity, MTS cell viability. Type of assay: cell-based. To be noted: Homo sapiens, HEL 92.1.7, AML, 72 hour MTS. On the procedure: as §1

Sequence of ITK (Q08881 whole entry): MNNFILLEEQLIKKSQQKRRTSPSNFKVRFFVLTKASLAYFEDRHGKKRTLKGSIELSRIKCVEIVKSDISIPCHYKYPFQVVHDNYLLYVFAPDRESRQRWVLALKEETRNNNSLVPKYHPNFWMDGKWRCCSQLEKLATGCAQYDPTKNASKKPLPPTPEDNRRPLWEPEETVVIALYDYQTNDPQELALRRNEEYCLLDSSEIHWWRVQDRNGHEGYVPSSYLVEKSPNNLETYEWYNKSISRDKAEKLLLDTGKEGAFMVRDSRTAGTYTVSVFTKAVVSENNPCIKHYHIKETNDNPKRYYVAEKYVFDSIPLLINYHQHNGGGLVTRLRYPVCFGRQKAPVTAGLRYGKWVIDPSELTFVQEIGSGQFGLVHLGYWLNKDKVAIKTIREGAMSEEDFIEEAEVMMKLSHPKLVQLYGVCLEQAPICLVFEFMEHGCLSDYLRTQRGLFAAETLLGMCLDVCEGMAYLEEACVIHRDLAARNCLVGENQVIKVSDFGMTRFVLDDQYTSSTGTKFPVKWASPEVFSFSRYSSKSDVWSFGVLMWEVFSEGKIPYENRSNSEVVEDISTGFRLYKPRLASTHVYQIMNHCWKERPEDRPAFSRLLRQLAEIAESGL
Sequence of BTK C481S (Q06187 whole entry C481S): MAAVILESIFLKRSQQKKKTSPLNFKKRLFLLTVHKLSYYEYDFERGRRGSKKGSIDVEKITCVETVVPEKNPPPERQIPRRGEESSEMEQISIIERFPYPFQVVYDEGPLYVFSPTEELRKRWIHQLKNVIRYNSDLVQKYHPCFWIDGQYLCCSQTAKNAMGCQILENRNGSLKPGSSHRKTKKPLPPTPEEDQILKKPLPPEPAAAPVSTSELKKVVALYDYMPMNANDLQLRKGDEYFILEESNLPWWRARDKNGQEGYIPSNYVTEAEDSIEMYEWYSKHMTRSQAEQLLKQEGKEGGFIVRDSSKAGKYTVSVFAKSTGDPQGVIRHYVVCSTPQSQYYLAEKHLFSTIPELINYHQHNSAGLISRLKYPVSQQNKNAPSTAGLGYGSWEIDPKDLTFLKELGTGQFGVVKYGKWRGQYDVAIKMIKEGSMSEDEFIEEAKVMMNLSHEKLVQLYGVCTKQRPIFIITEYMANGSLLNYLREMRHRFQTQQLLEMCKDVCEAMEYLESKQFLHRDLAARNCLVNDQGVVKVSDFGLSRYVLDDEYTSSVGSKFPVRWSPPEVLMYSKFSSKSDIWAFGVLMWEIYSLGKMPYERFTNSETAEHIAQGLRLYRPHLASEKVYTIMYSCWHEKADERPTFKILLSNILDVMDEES

For `Cc1cnc(-c2ccc(-c3ccc(NC(=O)Nc4c(F)cc(F)cc4F)cc3F)c3c2C(=O)NC3)[nH]1` [Compound 7, 1-{3-fluoro-4-[7-(5-methyl-1H-imidazol-2-yl)-1-oxo-2,3-dihydro-1H-isoindol-4-yl]-phenyl}-3-(2,4,6-trifluorophenyl)urea], the IC50 came to 4.3 nM against ITK; 0.3 nM in the assay with Ba/F3-ITD (FLT3-ITD); 0.17 nM in assay [3]; 8.26 nM with Ba/F3-D835Y (FLT3-D835Y); 10 nM in assay [4]; 2.52 nM on BTK C481S. The IC50 was 0.12 nM with Ba/F3-D835G (FLT3-D835G); 9.49 nM in the assay on Ba/F3-FLT3 (FLT3-WT); 28.7 nM in the assay with KG-1; 0.238 nM with MV4-11; 794 nM in the assay with MUTZ-8; 0.045 nM in the assay on EOL-1 [9]. The IC50 in the assay on Molm-13 turned out to be 0.395 nM; with NOM0-1, 20.5 nM; in the assay with THP-1 it was 2970 nM; in the assay on HL60 it was 280 nM; in the assay on HEL92.1.7, 4690 nM. In assay [1], the Tumor volume result was “reduces tumor volume with increased dose”. Besides, in [2], the Cell cycle progression entry was “interferes with cell cycle progression”. Besides, the “Inhibition of BTK pathway (Western blot)” value in [5] is reported as “inhibits BTK pathway”. Also, in the assay with EOL-1 [6], the “Activity at high serum concentration” value is “retains high activity at high serum concentration”. For the same compound, the Polyploidies entry in assay [7] is reported as “induce polyploidies”. The BCR signaling entry in [8] is reported as “affects the BCR signaling”.
